Source: patent US7507860B2 (Pfizer Inc., priority 2004, dated 2009)
Where a chain is given by its changes, count along the chain named. Where two headings read alike, the source gives them in different places.

Experiments:
[1] = target: T1, androgen receptor (Homo sapiens, UniProt P10275); test: AR antagonist cell assay (MDA-MB453-MMTV clone 54-19 luciferase reporter, 100 pM DHT); format: cell-based; settings: MDA-MB453-MMTV clone 54-19, inhibition of 100 pM DHT induction, 17 hr; mean of multiple tests; read-out: AR Cell IC50
T1 sequence (P10275 1-920 Q868H): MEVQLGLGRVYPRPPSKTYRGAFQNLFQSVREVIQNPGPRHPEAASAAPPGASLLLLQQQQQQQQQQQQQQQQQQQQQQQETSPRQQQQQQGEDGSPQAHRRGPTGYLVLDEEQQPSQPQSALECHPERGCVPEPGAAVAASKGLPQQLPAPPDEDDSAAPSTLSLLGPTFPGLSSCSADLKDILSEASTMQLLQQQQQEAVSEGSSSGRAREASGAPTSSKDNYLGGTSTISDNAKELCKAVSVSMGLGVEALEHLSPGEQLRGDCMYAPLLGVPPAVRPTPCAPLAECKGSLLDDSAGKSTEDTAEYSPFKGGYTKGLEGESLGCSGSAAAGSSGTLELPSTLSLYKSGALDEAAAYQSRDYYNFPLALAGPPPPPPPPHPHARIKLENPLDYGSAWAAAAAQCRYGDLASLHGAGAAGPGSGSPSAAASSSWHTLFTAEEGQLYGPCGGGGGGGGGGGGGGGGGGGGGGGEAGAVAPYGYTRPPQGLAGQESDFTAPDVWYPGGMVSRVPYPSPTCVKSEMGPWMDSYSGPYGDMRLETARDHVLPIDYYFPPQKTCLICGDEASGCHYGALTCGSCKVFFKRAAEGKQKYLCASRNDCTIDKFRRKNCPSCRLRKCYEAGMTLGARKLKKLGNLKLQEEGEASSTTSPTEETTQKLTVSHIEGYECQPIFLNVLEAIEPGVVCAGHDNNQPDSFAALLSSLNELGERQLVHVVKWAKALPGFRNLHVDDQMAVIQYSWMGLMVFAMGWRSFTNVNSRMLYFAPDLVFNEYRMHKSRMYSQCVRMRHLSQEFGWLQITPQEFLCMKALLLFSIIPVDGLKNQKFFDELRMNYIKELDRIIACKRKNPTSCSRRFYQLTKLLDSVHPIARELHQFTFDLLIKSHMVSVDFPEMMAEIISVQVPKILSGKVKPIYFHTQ
Protocol: The compounds ability to antagonize the effects of androgen on the androgen receptor were determined in a whole cell assay as described immediately below.
Experimental Procedure for AR Antagonist Cell Assay
This cell line is a stable transfected cell line with MDA-MB453 cell background (a human breast tumor cell line expressing androgen receptor). A MMTV minimal promoter containing ARE was first cloned in front of a firefly luciferase reporter gene. Then the cascade was cloned into transfection vector pUV120puro. […] Puromycin resistant stable cell line was selected. Cell Culture Media and Reagents:
Plating medium: DMEM (phenol red free), 10% charcoal treated HyClone serum, 1% L-glutamine
Assay medium: DMEM (phenol red free), 1% charcoal treated HyClone serum, 1% L-glutamine, and 1% penicillin/streptomycin
• 1. Cells are maintained in culture medium, splitting cells when they reach 80-90% confluence • 2. To test compounds, 10,000 cells/well are plated to opaque 96 cell culture plate in 100 ul/well plating medium, culture for overnight at 37° C. in cell culture incubator • 3. […] Add 10 ul/well freshly prepared DHT (final concentration at 100 pM) to each well, incubate at 37° C. for 17 hr (overnight) • 5.
The results are reported as the mean of multiple tests as described below (the numbers of tests are indicated in the footnote). N.D. denotes that the compound was not tested.

[2] = target: T2, human androgen receptor (hAR) (Homo sapiens, UniProt P10275); test: Competitive binding analysis on baculovirus/Sf9 generated hAR extracts with 3H-DHT tracer; settings: hAR extract, 1 nM 3H-DHT, one hour at 4° C, mean of multiple tests
T2 construct: made in house; host or cells: baculovirus/Sf9 insect cells (crude extract)
T2 sequence (P10275 1-920): T1 sequence (P10275 1-920 Q868H) with H868Q
Method in brief: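 Baculovirus/Sf9-expressed hAR extract incubated with hydroxylapatite, 1 nM 3H-DHT and decreasing compound concentrations for 1 h at 4 °C, then washed three times to remove unbound tracer. Bound 3H-DHT compared with no-competitor maximum; affinity given as concentration inhibiting half of maximum binding, mean of multiple tests.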

SMILES | IC50 [1] | IC50 ([2]; read-out: AR Binding IC50) | IC50 ([2]; AR Binding IC50 (nM))
Cc1ccc(CCNC(=O)C(CC(C)C)Oc2ccc(C#N)c(C(F)(F)F)c2)cc1 (centres unmarked) [Example 47, 2-(4-Cyano-3-trifluoromethyl-phenoxy)-4-methyl-pentanoic acid-(2-p-tolyl-ethyl)amide] | > 1000 nM | 144 nM | 
COc1ccccc1CCNC(=O)C(CC(C)C)Oc1ccc(C#N)c(C(F)(F)F)c1 (centres unmarked) [Example 48, 2-(4-Cyano-3-trifluoromethyl-phenoxy)-4-methyl-pentanoic acid-[2-(2-methoxyphenyl)-ethyl]-amide] | > 1000 nM | 123 nM | 
Cc1cccc(CCNC(=O)C(CC(C)C)Oc2ccc(C#N)c(C(F)(F)F)c2)c1 (centres unmarked) [Example 49, 2-(4-Cyano-3-trifluoromethyl-phenoxy)-4-methyl-pentanoic acid-(2-m-tolyl-ethyl)amide] | > 1000 nM | 75 nM | 
CC(C)CC(Oc1ccc(C#N)c(C(F)(F)F)c1)C(=O)NCC(C)Oc1ccccc1 (centres unmarked) [Example 53, 2-(4-Cyano-3-trifluoromethyl-phenoxy)-4-methyl-pentanoic acid-(2-phenoxypropyl)-amide] | 299 nM | 59 nM | 
CC(C)CC(Oc1ccc(C#N)c(C(F)(F)F)c1)C(=O)NC1CCc2ccccc21 (centres unmarked) [Example 54, 2-(4-Cyano-3-trifluoromethyl-phenoxy)-4-methyl-pentanoic acid indan-1-yl-amide] | 836 nM | 70 nM | 
CCCC(Oc1ccc(C#N)c(C(F)(F)F)c1)C(=O)NCC(C)Oc1ccccc1 (centres unmarked) [Example 55, 2-(4-Cyano-3-trifluoromethyl-phenoxy)-pentanoic acid-(2-phenoxy-propyl)-amide] | 393 nM | 182 nM | 
CCCC(Oc1ccc(C#N)c(C(F)(F)F)c1)C(=O)NCCOc1ccccc1 (centres unmarked) [Example 56, 2-(4-Cyano-3-trifluoromethyl-phenoxy)-pentanoic acid-(2-phenoxy-ethyl)-amide] | 790 nM | 157 nM | 
CCCC(Oc1ccc(C#N)c(C(F)(F)F)c1)C(=O)NC1CCc2ccccc21 (centres unmarked) [Example 57, 2-(4-Cyano-3-trifluoromethyl-phenoxy)-pentanoic acid indan-1-yl-amide] | 561 nM | 146 nM | 
COc1cccc(CCNC(=O)C(CC(C)C)Oc2ccc(C#N)c(C(F)(F)F)c2)c1 (centres unmarked) [Example 58, 2-(4-Cyano-3-trifluoromethyl-phenoxy)-4-methyl-pentanoic acid-[2-(3-methoxyphenyl)-ethyl]-amide] | > 1000 nM | 64 nM | 
CC(C)CC(Oc1ccc(C#N)c(C(F)(F)F)c1)C(=O)NCCc1c[nH]c2ccccc12 (centres unmarked) [Example 59, 2-(4-Cyano-3-trifluoromethyl-phenoxy)-4-methyl-pentanoic acid [2-(1H-indol-3-yl)ethyl]amide] | 101 nM | 48 nM | 
CC(C)CC(Oc1ccc(C#N)c(C(F)(F)F)c1)C(=O)NCCc1ccc(O)cc1 (centres unmarked) [Example 61, 2-(4-Cyano-3-trifluoromethyl-phenoxy)-4-methyl-pentanoic acid-[2-(4-hydroxyphenyl)-ethyl]-amide] | 341 nM | 86 nM | 
CC(C)CC(Oc1ccc(C#N)c(C(F)(F)F)c1)C(=O)NCCCc1cccnc1 (centres unmarked) [Example 62, 2-(4-Cyano-3-trifluoromethyl-phenoxy)-4-methyl-pentanoic acid-(3-pyridin-3-ylpropyl)-amide] | > 1000 nM | 192 nM | 
CCCC(Oc1ccc(C#N)c(C(F)(F)F)c1)C(=O)NCCc1cccc(OC)c1 (centres unmarked) [Example 64, 2-(4-Cyano-3-trifluoromethyl-phenoxy)-pentanoic acid-[2-(3-methoxy-phenyl)ethyl]-amide] | > 1000 nM | 220 nM | 
CCCC(Oc1ccc(C#N)c(C(F)(F)F)c1)C(=O)NCCc1c[nH]c2ccccc12 (centres unmarked) [Example 65, 2-(4-Cyano-3-trifluoromethyl-phenoxy)-pentanoic acid [2-(1H-indol-3-yl)ethyl]amide] | 64 nM | 33 nM | 
CCCC(Oc1ccc(C#N)c(C(F)(F)F)c1)C(=O)NCCc1ccc(O)cc1 (centres unmarked) [Example 66] | 77 nM |  | 151 nM
CC(C)CC(Oc1ccc(C#N)c(C(F)(F)F)c1)C(=O)NCC(c1ccccc1)N(C)C (centres unmarked) [Example 68, 2-(4-Cyano-3-trifluoromethyl-phenoxy)-4-methyl-pentanoic acid (2-dimethylamino-2-phenyl-ethyl)-amide] | > 1000 nM | 223 nM | 
COc1ccc(CNC(=O)C(CC(C)C)Oc2ccc(C#N)c(C(F)(F)F)c2)cn1 (centres unmarked) [Example 72, 2-(4-Cyano-3-trifluoromethyl-phenoxy)-4-methyl-pentanoic acid-(6-methoxy-pyridin-3-yl-methyl)-amide] | 251 nM | 82 nM | 
COc1ccc(CNC(=O)C(CC(C)C)Oc2ccc(C#N)c(C(F)(F)F)c2)cc1 (centres unmarked) [Example 73, 2-(4-Cyano-3-trifluoromethyl-phenoxy)-4-methyl-pentanoic acid-4-methoxy-benzylamide] | 428 nM | 92 nM | 
CC(C)CC(Oc1ccc(C#N)c(C(F)(F)F)c1)C(=O)NCc1ccc(O)c(O)c1 (centres unmarked) [Example 74, 2-(4-Cyano-3-trifluoromethyl-phenoxy)-4-methyl-pentanoic acid-3,4-dihydroxy-benzylamide] | 976 nM | 139 nM | 
Cc1ccc(NC(=O)C(CC(C)C)Oc2ccc(C#N)c(C(F)(F)F)c2)cc1O (centres unmarked) [Example 78, 2-(4-Cyano-3-trifluoromethyl-phenoxy)-4-methyl-pentanoic acid (3-hydroxy-4-methyl-phenyl)-amide] | 948 nM | 121 nM | 
CC(C)CC(Oc1ccc(C#N)c(C(F)(F)F)c1)C(=O)N(CCO)C(C)C (centres unmarked) [Example 79, 2-(4-Cyano-3-trifluoromethyl-phenoxy)-4-methyl-pentanoic acid (2-hydroxy-ethyl)isopropyl-amide] | > 1000 nM | 3130 nM | 
CCCOCCNC(=O)C(CC(C)C)Oc1ccc(C#N)c(C(F)(F)F)c1 (centres unmarked) [Example 81, 2-(4-Cyano-3-trifluoromethyl-phenoxy)-4-methyl-pentanoic acid (2-propoxy-ethyl)amide] | > 1000 nM | 142 nM | 
